In patent US9776995B2, “Bicyclic sulfonamide compounds as sodium channel inhibitors” (AMGEN INC., priority 2013, dated 2017):
Like-named read-outs stand apart in the source and are kept apart here. Values belong to the molecule of their own block, whether it stands above or below them.

Columns and labels:
Nav 1.5 = Nav 1.5 (Homo sapiens (Human), UniProt Q14524); assay: in-vitro Nav 1.5 PX data; settings: read-out: Nav 1.5 PX IC50
Nav 1.7 = Nav 1.7 (Homo sapiens (Human), UniProt Q15858); assay: in-vitro Nav 1.7 PX data; assay type: cell-based
Nav 1.7, sequence (Q15858 whole entry): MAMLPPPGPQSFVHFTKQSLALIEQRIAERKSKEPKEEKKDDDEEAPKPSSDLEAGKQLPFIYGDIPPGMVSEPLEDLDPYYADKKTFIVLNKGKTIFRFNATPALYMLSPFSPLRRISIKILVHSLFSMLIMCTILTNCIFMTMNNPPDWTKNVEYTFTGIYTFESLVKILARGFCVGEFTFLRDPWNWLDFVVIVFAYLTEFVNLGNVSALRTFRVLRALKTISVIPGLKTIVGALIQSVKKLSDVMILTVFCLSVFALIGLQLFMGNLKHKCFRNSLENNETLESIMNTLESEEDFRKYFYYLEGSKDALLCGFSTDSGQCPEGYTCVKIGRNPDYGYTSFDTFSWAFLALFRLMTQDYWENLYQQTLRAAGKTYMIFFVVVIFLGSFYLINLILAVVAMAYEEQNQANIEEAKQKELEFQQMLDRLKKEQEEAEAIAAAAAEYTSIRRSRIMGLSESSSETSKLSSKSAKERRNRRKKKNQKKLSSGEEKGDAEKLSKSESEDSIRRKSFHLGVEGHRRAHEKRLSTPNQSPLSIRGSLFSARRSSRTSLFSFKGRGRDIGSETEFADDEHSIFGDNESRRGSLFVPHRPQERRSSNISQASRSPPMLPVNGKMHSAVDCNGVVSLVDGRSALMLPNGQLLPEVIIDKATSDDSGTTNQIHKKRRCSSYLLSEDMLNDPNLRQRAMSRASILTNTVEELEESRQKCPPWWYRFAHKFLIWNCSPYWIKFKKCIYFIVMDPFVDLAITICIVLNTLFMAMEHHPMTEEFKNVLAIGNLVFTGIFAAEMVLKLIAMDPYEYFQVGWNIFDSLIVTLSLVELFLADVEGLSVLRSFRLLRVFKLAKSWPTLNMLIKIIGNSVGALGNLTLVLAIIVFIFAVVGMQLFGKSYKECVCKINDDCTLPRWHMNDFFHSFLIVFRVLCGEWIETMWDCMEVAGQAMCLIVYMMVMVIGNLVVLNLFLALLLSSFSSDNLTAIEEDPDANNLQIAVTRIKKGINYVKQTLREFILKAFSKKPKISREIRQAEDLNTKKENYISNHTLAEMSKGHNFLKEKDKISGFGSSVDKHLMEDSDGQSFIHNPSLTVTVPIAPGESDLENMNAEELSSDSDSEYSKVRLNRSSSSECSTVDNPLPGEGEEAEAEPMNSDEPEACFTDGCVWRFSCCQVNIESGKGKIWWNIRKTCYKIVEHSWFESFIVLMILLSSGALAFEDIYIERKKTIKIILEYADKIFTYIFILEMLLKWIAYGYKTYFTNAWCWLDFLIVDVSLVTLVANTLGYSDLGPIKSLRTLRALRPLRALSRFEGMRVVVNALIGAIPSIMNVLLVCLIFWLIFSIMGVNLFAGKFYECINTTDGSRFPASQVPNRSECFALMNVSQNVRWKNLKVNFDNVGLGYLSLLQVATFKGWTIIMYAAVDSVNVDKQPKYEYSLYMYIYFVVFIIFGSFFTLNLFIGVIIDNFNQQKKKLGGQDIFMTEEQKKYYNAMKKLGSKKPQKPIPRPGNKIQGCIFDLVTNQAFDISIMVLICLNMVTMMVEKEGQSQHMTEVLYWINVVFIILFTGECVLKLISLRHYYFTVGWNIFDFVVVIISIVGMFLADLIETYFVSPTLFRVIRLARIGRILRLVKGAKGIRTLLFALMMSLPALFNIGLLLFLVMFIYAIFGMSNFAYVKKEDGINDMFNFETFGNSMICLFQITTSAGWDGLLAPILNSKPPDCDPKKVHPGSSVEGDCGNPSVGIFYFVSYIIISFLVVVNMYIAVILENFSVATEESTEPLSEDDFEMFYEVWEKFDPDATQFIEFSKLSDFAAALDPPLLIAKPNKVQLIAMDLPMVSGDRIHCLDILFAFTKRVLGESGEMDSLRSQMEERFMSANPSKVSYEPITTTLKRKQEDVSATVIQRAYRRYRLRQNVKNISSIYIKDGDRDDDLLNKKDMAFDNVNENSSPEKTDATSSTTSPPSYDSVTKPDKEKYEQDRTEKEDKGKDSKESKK

Nav 1.5, sequence (Q14524 whole entry): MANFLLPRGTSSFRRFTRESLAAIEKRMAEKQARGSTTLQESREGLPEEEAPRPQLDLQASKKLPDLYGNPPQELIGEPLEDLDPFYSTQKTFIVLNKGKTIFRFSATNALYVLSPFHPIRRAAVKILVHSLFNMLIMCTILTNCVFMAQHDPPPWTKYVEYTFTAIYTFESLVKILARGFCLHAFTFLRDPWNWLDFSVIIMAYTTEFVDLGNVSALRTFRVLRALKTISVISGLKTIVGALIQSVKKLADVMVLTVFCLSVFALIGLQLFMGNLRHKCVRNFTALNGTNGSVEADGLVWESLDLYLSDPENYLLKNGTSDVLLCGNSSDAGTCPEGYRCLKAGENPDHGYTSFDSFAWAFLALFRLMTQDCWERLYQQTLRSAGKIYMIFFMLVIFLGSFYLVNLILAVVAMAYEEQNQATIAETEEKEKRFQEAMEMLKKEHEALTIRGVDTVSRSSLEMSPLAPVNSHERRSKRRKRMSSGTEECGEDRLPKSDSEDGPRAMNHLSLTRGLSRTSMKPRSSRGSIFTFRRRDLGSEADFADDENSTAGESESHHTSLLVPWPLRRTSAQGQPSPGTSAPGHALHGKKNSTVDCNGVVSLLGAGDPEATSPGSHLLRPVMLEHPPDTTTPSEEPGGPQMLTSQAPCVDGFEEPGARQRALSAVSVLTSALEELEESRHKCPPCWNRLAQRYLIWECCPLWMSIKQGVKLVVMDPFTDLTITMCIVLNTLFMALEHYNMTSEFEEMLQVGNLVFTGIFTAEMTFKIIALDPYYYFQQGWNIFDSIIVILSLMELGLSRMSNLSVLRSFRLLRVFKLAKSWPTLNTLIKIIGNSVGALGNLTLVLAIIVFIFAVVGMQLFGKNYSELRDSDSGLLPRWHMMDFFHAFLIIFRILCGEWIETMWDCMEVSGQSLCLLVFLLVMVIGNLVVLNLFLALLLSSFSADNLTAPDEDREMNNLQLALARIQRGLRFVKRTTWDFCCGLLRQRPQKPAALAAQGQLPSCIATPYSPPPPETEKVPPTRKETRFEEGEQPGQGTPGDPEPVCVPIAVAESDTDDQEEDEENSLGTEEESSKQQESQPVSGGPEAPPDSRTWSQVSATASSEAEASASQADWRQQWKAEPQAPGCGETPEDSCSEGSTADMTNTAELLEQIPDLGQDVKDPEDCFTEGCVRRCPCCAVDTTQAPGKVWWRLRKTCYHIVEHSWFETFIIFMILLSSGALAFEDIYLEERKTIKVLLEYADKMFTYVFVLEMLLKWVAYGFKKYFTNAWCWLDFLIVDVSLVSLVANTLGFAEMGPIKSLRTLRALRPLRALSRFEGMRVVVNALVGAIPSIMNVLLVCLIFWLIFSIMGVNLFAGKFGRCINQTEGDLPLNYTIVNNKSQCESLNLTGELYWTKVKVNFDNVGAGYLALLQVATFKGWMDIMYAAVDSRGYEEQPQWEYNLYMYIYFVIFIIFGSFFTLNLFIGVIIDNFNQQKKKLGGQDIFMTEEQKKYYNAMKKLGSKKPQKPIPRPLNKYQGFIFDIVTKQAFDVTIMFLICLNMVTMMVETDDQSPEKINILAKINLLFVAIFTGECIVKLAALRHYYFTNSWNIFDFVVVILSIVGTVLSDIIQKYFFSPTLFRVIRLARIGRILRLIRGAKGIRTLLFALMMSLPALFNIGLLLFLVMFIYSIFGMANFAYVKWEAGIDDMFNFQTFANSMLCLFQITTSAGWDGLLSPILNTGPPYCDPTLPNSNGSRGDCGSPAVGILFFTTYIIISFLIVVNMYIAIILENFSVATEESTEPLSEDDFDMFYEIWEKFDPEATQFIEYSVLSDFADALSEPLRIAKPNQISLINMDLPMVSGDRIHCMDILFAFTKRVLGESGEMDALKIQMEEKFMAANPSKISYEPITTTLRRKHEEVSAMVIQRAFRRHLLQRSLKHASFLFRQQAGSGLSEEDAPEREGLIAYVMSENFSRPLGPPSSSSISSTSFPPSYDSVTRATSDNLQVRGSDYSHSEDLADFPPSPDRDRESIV

- IC50 (Nav 1.7; in-vitro Nav 1.7 PX data): 19.4 nM
SMILES: COc1cc(-c2ccc(F)c(Cl)c2)c(C#N)cc1-c1nccc2cc(S(=O)(=O)Nc3ccncn3)ccc12 [Example 158, 1-(3′-chloro-2-cyano-4′-fluoro-5-methoxy-4-biphenylyl)-N-4-pyrimidinyl-6-isoquinolinesulfonamide]
- IC50 (Nav 1.5; in-vitro Nav 1.5 PX data): 5850 nM

- IC50 (Nav 1.7; in-vitro Nav 1.7 PX data): 206 nM
SMILES: COc1cc(-c2ccccc2C)c(C#N)cc1-c1nccc2cc(S(=O)(=O)Nc3ccncn3)ccc12 [Example 157, 1-(2-cyano-5-methoxy-2′-methyl-4-biphenylyl)-N-4-pyrimidinyl-6-isoquinolinesulfonamide]
- IC50 (Nav 1.5; in-vitro Nav 1.5 PX data): > 10000 nM

- IC50 (Nav 1.7; in-vitro PX data): 91.7 nM
SMILES: COc1cc(Cl)c(-c2cccc(F)c2)cc1-c1nccc2cc(S(=O)(=O)Nc3ccon3)ccc12 [Example 121, 1-(6-chloro-3′-fluoro-4-methoxy-3-biphenylyl)-N-3-isoxazolyl-6-isoquinolinesulfonamide]
- IC50 (Nav 1.5; in-vitro PX data): > 10000 nM

- IC50 (Nav 1.7; in-vitro PX (PatchXpress) data): 36.3 nM
SMILES: COc1cc(-c2cccc(C(F)(F)F)c2)c(C#N)cc1-c1nccc2cc(S(=O)(=O)Nc3ccncn3)ccc12 [Example 184, 1-(2-cyano-5-methoxy-3′-(trifluoromethyl)-4-biphenylyl)-N-4-pyrimidinyl-6-isoquinolinesulfonamide]
- IC50 (Nav 1.5; in-vitro PX (PatchXpress) data): > 30000 nM

- IC50 (Nav 1.7; in-vitro PX (PatchXpress) data): 141 nM
SMILES: COc1cc(Oc2ccc(F)cc2)ccc1-c1nccc2cc(S(=O)(=O)Nc3nncs3)ccc12 [Example 174, 1-(4-(4-fluorophenoxy)-2-methoxyphenyl)-N-1,3,4-thiadiazol-2-yl-6-isoquinolinesulfonamide]
- IC50 (Nav 1.5; in-vitro PX (PatchXpress) data): > 10000 nM

- IC50 (Nav 1.7; in-vitro PX data): 171 nM
SMILES: COc1cc(-c2cc(F)cc(F)c2)ccc1-c1nccc2cc(S(=O)(=O)Nc3ncccn3)ccc12 [Example 123, 1-(3′,5′-difluoro-3-methoxy-4-biphenylyl)-N-2-pyrimidinyl-6-isoquinolinesulfonamide]
- IC50 (Nav 1.5; in-vitro PX data): > 10000 nM

- IC50 (Nav 1.7; in-vitro PX data): 255 nM
SMILES: COc1cc(-c2cc(F)cc(F)c2)c(C#N)cc1-c1nccc2cc(S(=O)(=O)Nc3ncccn3)ccc12 [Example 107, 1-(2-cyano-3′,5′-difluoro-5-methoxy-4-biphenylyl)-N-2-pyrimidinyl-6-isoquinolinesulfonamide]
- IC50 (Nav 1.5; in-vitro PX data): > 10000 nM

- IC50 (Nav 1.7; in-vitro PX (PatchXpress) data): 150 nM
SMILES: COc1cc(-c2ccc(F)cc2)c(C#N)cc1-c1nccc2cc(S(=O)(=O)Nc3ccncn3)ccc12 [Example 186, 1-(2-cyano-4′-fluoro-5-methoxy-4-biphenylyl)-N-4-pyrimidinyl-6-isoquinolinesulfonamide]
- IC50 (Nav 1.5; in-vitro PX (PatchXpress) data): > 10000 nM

- IC50 (Nav 1.7; in-vitro PX (PatchXpress) data): 243 nM
SMILES: COc1cc(Oc2cc(C)ccc2F)ccc1-c1nccc2cc(S(=O)(=O)Nc3nncs3)ccc12 [Example 190, 1-(4-(2-fluoro-5-methylphenoxy)-2-methoxyphenyl)-N-1,3,4-thiadiazol-2-yl-6-isoquinolinesulfonamide]
- IC50 (Nav 1.5; in-vitro PX (PatchXpress) data): > 10000 nM

- IC50 (Nav 1.7; in-vitro PX data): 39.5 nM
SMILES: COc1cc(-c2cccc(C)c2)c(C#N)cc1-c1nccc2cc(S(=O)(=O)Nc3ccon3)ccc12 [Example 112, 1-(2-cyano-5-methoxy-3′-methyl-4-biphenylyl)-N-3-isoxazolyl-6-isoquinolinesulfonamide]
- IC50 (Nav 1.5; in-vitro PX data): > 10000 nM

- IC50 (Nav 1.7; in-vitro PX (PatchXpress) data): 305 nM
SMILES: COc1ccc(Oc2ccc(-c3nccc4cc(S(=O)(=O)Nc5ccncn5)ccc34)c(OC)c2)cc1 [Example 182, 1-(2-methoxy-4-(4-methoxyphenoxy)phenyl)-N-4-pyrimidinyl-6-isoquinolinesulfonamide]
- IC50 (Nav 1.5; in-vitro PX (PatchXpress) data): > 10000 nM

- IC50 (Nav 1.7; in-vitro PX data): 109 nM
SMILES: COc1cc(Cl)c(-c2cccc(F)c2)cc1-c1nccc2cc(S(=O)(=O)Nc3nncs3)ccc12 [Example 110, 1-(6-chloro-3′-fluoro-4-methoxy-3-biphenylyl)-N-1,3,4-thiadiazol-2-yl-6-isoquinolinesulfonamide]
- IC50 (Nav 1.5; in-vitro PX data): > 10000 nM

- IC50 (Nav 1.7; PatchXpress (PX), in vitro): 33 nM
SMILES: COc1cc(-c2ccc(C)c(Cl)c2)c(C#N)cc1-c1nccc2cc(S(=O)(=O)Nc3ccon3)ccc12 [Example 78, 1-(3′-chloro-2-cyano-5-methoxy-4′-methyl-4-biphenylyl)-N-3-isoxazolyl-6-isoquinolinesulfonamide]
- IC50 (Nav 1.5; PatchXpress (PX), in vitro): > 10000 nM

- IC50 (Nav 1.7; in-vitro PX): 80.3 nM
SMILES: COc1cc(-c2cccc(F)c2)c(Cl)cc1-c1ncnc2cc(S(=O)(=O)Nc3ncccn3)ccc12 [Example 243, 4-(2-chloro-3′-fluoro-5-methoxy-4-biphenylyl)-N-2-pyrimidinyl-7-quinazolinesulfonamide]
- IC50 (Nav 1.5; in-vitro PX): > 10000 nM

- IC50 (Nav 1.7; in-vitro PX data): 21.8 nM
SMILES: COc1cc(-c2cccc(Cl)c2)c(C#N)cc1-c1nccc2cc(S(=O)(=O)Nc3ccon3)ccc12 [Example 111, 1-(3′-chloro-2-cyano-5-methoxy-4-biphenylyl)-N-3-isoxazolyl-6-isoquinolinesulfonamide]
- IC50 (Nav 1.5; in-vitro PX data): > 10000 nM

- IC50 (Nav 1.7; in-vitro PX (PatchXpress) data): 204 nM
SMILES: COc1cc(Oc2ccc(C)c(C)c2)ccc1-c1nccc2cc(S(=O)(=O)Nc3ccncn3)ccc12 [Example 176, 1-(4-(3,4-dimethylphenoxy)-2-methoxyphenyl)-N-4-pyrimidinyl-6-isoquinolinesulfonamide]
- IC50 (Nav 1.5; in-vitro PX (PatchXpress) data): > 10000 nM

Continued, molecule first:

SMILES: COc1nc(OCC2CCCCC2)ccc1-c1nccc2cc(S(=O)(=O)Nc3ccncn3)ccc12 [Example 66, 1-(6-(cyclohexylmethoxy)-2-methoxy-3-pyridinyl)-N-4-pyrimidinyl-6-isoquinolinesulfonamide]
- IC50 (Nav 1.5; PatchXpress (PX), in vitro): > 10000 nM
- IC50 (Nav 1.7; PatchXpress (PX), in vitro): 349 nM

SMILES: COc1cc(-c2cccc(C(F)(F)F)c2)c(C#N)cc1-c1nccc2cc(S(=O)(=O)Nc3ccon3)ccc12 [Example 1, 1-(2-CYANO-5-METHOXY-3′-(TRIFLUOROMETHYL)-[1,1′-BIPHENYL]-4-YL)-N-(ISOXAZOL-3-YL)ISOQUINOLINE-6-SULFONAMIDE]
- IC50 (Nav 1.5; in-vitro Nav 1.5 PX data): > 10000 nM
- IC50 (Nav 1.7; in-vitro Nav 1.7 PX data): 54.7 nM

SMILES: COc1nc(OCC2CCC(F)(F)CC2)ccc1-c1nccc2cc(S(=O)(=O)Nc3ccncn3)ccc12 [Example 69, 1-(6-((4,4-difluorocyclohexyl)methoxy)-2-methoxy-3-pyridinyl)-N-4-pyrimidinyl-6-isoquinolinesulfonamide]
- IC50 (Nav 1.5; PatchXpress (PX), in vitro): > 30000 nM
- IC50 (Nav 1.7; PatchXpress (PX), in vitro): 459 nM

SMILES: COc1cc(-c2cccc(F)c2)c(Cl)cc1-c1n[nH]c(=O)c2cc(S(=O)(=O)Nc3nncs3)ccc12 [Example 14, 1-(2-CHLORO-3′-FLUORO-5-METHOXY-[1,1′-BIPHENYL]-4-YL)-4-OXO-N-(1,3,4-THIADIAZOL-2-YL)-3,4-DIHYDROPHTHALAZINE-6-SULFONAMIDE]
- IC50 (Nav 1.5; in-vitro PX (PatchXpress) data): > 10000 nM
- IC50 (Nav 1.7): 131 nM

SMILES: COc1cc(-c2cc(F)cnc2OC)c(C#N)cc1-c1nccc2cc(S(=O)(=O)Nc3ccon3)ccc12 [Example 83, 1-(5-cyano-4-(5-fluoro-2-methoxy-3-pyridinyl)-2-methoxyphenyl)-N-3-isoxazolyl-6-isoquinolinesulfonamide]
- IC50 (Nav 1.5; PatchXpress (PX), in vitro): > 10000 nM

SMILES: COc1cc(-c2ccc(C)c(F)c2)c(C#N)cc1-c1nccc2cc(S(=O)(=O)Nc3ccon3)ccc12 [Example 81, 1-(2-cyano-3′-fluoro-5-methoxy-4′-methyl-4-biphenylyl)-N-3-isoxazolyl-6-isoquinolinesulfonamide]
- IC50 (Nav 1.5; PatchXpress (PX), in vitro): > 10000 nM

SMILES: COc1cc(-c2cccc(F)c2)c(Cl)cc1-c1ncnc2cc(S(=O)(=O)Nc3ccon3)ccc12 [Example 227, 4-(2-chloro-3′-fluoro-5-methoxy-4-biphenylyl)-N-3-isoxazolyl-7-quinazolinesulfonamide]
- IC50 (Nav 1.5; in-vitro PX): > 10000 nM

SMILES: COc1cc(-c2ccc(F)c(Cl)c2)c(C#N)cc1-c1nccc2cc(S(=O)(=O)Nc3nncs3)ccc12 [Example 221, 1-(3′-chloro-2-cyano-4′-fluoro-5-methoxy-4-biphenylyl)-N-1,3,4-thiadiazol-2-yl-6-isoquinolinesulfonamide]
- IC50 (Nav 1.5; in-vitro PX): > 10000 nM

SMILES: COc1cc(-c2cccc(Cl)c2)c(F)cc1-c1nccc2cc(S(=O)(=O)Nc3ccon3)ccc12 [Example 116, 1-(3′-chloro-2-fluoro-5-methoxy-4-biphenylyl)-N-3-isoxazolyl-6-isoquinolinesulfonamide]
- IC50 (Nav 1.5; in-vitro PX data): > 10000 nM

SMILES: COc1ccc(F)cc1-c1cc(OC)c(-c2ncnc3cc(S(=O)(=O)Nc4ccon4)ccc23)cc1C [Example 191, 4-(5′-fluoro-2′,5-dimethoxy-2-methyl-4-biphenylyl)-N-3-isoxazolyl-7-quinazolinesulfonamide]
- IC50 (Nav 1.5; in-vitro PX (PatchXpress) data): > 10000 nM

SMILES: COc1cc(-c2cc(C)c(C)cc2C)c(C#N)cc1-c1nccc2cc(S(=O)(=O)Nc3ccncn3)ccc12 [Example 165, 1-(2-cyano-5-methoxy-2′,4′,5′-trimethyl-4-biphenylyl)-N-4-pyrimidinyl-6-isoquinolinesulfonamide]
- IC50 (Nav 1.5; in-vitro Nav 1.5 PX data): > 30000 nM

SMILES: COc1cc(-c2cc(C)cc(F)c2)c(C#N)cc1-c1nccc2cc(S(=O)(=O)Nc3ccncn3)ccc12 [Example 164, 1-(2-cyano-3′-fluoro-5-methoxy-5′-methyl-4-biphenylyl)-N-4-pyrimidinyl-6-isoquinolinesulfonamide]
- IC50 (Nav 1.5; in-vitro Nav 1.5 PX data): > 30000 nM

SMILES: COc1cc(-c2ccc(F)c(C)n2)c(C)cc1-c1ncnc2cc(S(=O)(=O)Nc3ccon3)ccc12 [Example 33]
- IC50 (Nav 1.5; in-vitro PX (PatchXpress) data): > 10000 nM

SMILES: COc1cc(-c2ccc(Cl)c(F)c2)c(C#N)cc1-c1nccc2cc(S(=O)(=O)Nc3nncs3)ccc12 [Example 224, 1-(4′-chloro-2-cyano-3′-fluoro-5-methoxy-4-biphenylyl)-N-1,3,4-thiadiazol-2-yl-6-isoquinolinesulfonamide]
- IC50 (Nav 1.5; in-vitro PX): > 10000 nM

SMILES: COc1cc(-c2ccc(Cl)c(C)c2)c(C#N)cc1-c1nccc2cc(S(=O)(=O)Nc3nncs3)ccc12 [Example 228, 1-(4′-chloro-2-cyano-5-methoxy-3′-methyl-4-biphenylyl)-N-1,3,4-thiadiazol-2-yl-6-isoquinolinesulfonamide]
- IC50 (Nav 1.5; in-vitro PX): > 10000 nM

SMILES: COc1cc(-c2cccc(C(F)(F)F)c2)c(F)cc1-c1nn(C)c(=O)c2cc(S(=O)(=O)Nc3nncs3)ccc12 [Example 234, 1-(2-fluoro-5-methoxy-3′-(trifluoromethyl)-4-biphenylyl)-3-methyl-4-oxo-N-1,3,4-thiadiazol-2-yl-3,4-dihydro-6-phthalazinesulfonamide]
- IC50 (Nav 1.5; in-vitro PX): > 10000 nM
